Structures can show the parent of a compound that is named as a salt. Where two headings read alike, the source gives them in different places. Marks after values point to notes of the source that are not given here.
How the values were obtained:
mice = test: Proconvulsant properties of bupropion salts: clonic convulsions in mice; conditions: for Mean Number of Convulsions/Mouse / Total Number of convulsions: N=13
Experimental: Number of convulsions and the intensity of the convulsions were recorded.
Mild: Head and tail slightly extended and little jerking; Moderate: Head and tail fully extended with some jerking; Severe: Head and tail fully extended with strong jerking. […] Step 2: To further investigate the patterns of convulsion occurrence using loglinear Poisson regression models. The number of convulsions was analyzed using the loglinear Poisson regression models with formulation, dose, and severity as predictors.

[1] = forced degradation of bupropion HBr and HCl in the presence of excipients at 55° C., 55° C./100% RH, 100° C., 105° C. (incl. TGA at 100° C.); assay type: physicochemical; conditions: TGA experiment at 100° C.
Experimental: Further forced degradation studies were carried out at 55° C., at 55° C. and 100% relative humidity, at 100° C., and at 105° C. on both the HCl and HBr Bupropion salts in the presence of excipients. […] FIG. 53 is a graph showing the loss of each salt over time in a TGA experiment at 100° C.

rat = conditions: for NUMBER OF ANIMALS WITH SEIZURE ACTIVITY / DURATION OF INITIAL SEIZURE CORTEX mean ± s.e.m. / DURATION OF INITIAL SEIZURE HIPPOCAMPUS mean ± s.e.m.: 100 mg/kg i.p., long seizure activity; for NUMBER OF ANIMALS WITH SEIZURE ACTIVITY: 10 rats per group, HBr dose in HCl molar equivalent
[2] = forced degradation stability study of bupropion salts in vials, 40 degrees C./75% RH, HPLC assay and impurities; conditions: for order of stability (assay, % potency): salt plus excipients, 20 days, 40 degrees C./75% RH
CD-1 mice = test: clonic convulsions in CD-1 mice after intraperitoneal dosing (range finding and main study)
Experimental: Two studies were performed to investigate the relative proconvulsant properties of the two bupropion salts. In the first instance a range finding study was performed to establish the appropriate dose range for the main study. In each study the mice were divided into two dose groups and injected intraperitoneally with either bupropion HCl or bupropion HBr.
A clonic convulsion was defined as a stiffening of the animal followed by jerking movements. The convulsions were classified as mild, moderate and severe according to the following descriptions.
Mild: Head and tail slightly extended and little jerking
Moderate: Head and tail fully extended with some jerking
Severe: Head and tail fully extended with strong jerking
Post-treatment findings recorded included continuous observation for 120 minutes for evidence of clonic convulsions, and intermittent (fixed) observations for 24 hours for other signs, including tonic convulsions, movement, activity, paralysis, gait and evidence of recovery.

[3] = 150 mg/kg, Moderate, hydrochloride
[4] = 150 mg/kg, Severe, hydrochloride
[5] = 100 mg/kg i.p., pooled data N = 13/dose group, hydrochloride
[6] = 150 mg/kg i.p., pooled data N = 13/dose group, hydrochloride
[7] = spiked with IPA/EtOH, closed vials, 32 days

## CC(NC(C)(C)C)C(=O)c1cccc(Cl)c1.Cl (racemic) [bupropion hydrochloride, (±)-1-(3-chlorophenyl)-2-[(1,1-dimethylethyl)amino]-1-propanone hydrochloride]
mice; 100 mg/kg, All
  Mean Number of Convulsions/Mouse, cumulative: 0.23
mice; loglinear Poisson regression, adjusted for dose and severity
  odds of number of convulsions vs the bupropion hydrobromide group: 1.41
[1]
  disproportionation of the salt at elevated temperatures (TGA, loss of API): disproportionation of the HCl salt occurs with concomitant loss of gaseous HCl
rat
  NUMBER OF ANIMALS WITH SEIZURE ACTIVITY: 10
  DURATION OF INITIAL SEIZURE CORTEX mean ± s.e.m.: 33 ± 3
  DURATION OF INITIAL SEIZURE HIPPOCAMPUS mean ± s.e.m.: 25 ± 4
[2]
  In IPA/EtOH, 3-CBZ: order of impurity content: maleate > HBr > HCl > Fumarate
  In IPA/EtOH, 852U77: order of impurity content: fumarate > HBr ≈HCl ≈maleate ≈tosylate
  In IPA/EtOH, Total imp.: order of impurity content: fumarate > maleate > HBr > HCl > tosylate
  In water, 3-CBZ: order of impurity content: HCl > HBr≈maleate≈fumarate
  In water, 852U77: order of impurity content: fumarate > HBr > maleate > HCl
  In water, Total imp.: order of impurity content: fumarate > HBr > HCl > tosylate > maleate
[2]; closed vials
  order of stability (assay, % potency): HBr>HCl≈tosylate>fumarate>maleate
CD-1 mice; CD-1 mice
  severity of seizure activity in the initial behavioral study: more severe

## CC(NC(C)(C)C)C(=O)c1cccc(Cl)c1 (stereo not drawn) [Bupropion HCl, bupropion hydrochloride]
mice; 100 mg/kg, All, hydrochloride
  Mean Number of Convulsions/Mouse, cumulative: 0.23
mice; 100 mg/kg, Mild, hydrochloride
  Mean Number of Convulsions/Mouse: 0.0
  Total Number of convulsions: 0
mice; 100 mg/kg, Moderate
  Mean Number of Convulsions/Mouse: 0.08
  Total Number of convulsions: 1
mice; 100 mg/kg, Severe + Moderate, hydrochloride
  Mean Number of Convulsions/Mouse, cumulative: 0.23
mice; 100 mg/kg, Severe, 120 min observation, hydrochloride
  Mean Number of Convulsions/Mouse: 0.15
mice; 100 mg/kg, Severe, hydrochloride
  Total Number of convulsions: 2
mice; 150 mg/kg, All, hydrochloride
  Mean Number of Convulsions/Mouse, cumulative: 71.00
mice; 150 mg/kg, Mild, hydrochloride
  Mean Number of Convulsions/Mouse: 6.23
  Total Number of convulsions: 81
mice; [3]
  Mean Number of Convulsions/Mouse: 8.69
  Total Number of convulsions: 113
mice; 150 mg/kg, Severe + Moderate, hydrochloride
  Mean Number of Convulsions/Mouse, cumulative: 64.77
mice; [4]
  Mean Number of Convulsions/Mouse: 56.08
  Total Number of convulsions: 729
CD-1 mice; 75 mg/kg i.p. (as Bupropion HCl, HBr equimolar), range-finding study, N = 3/dose group
  Mean Number of Convulsions/Mouse: 0
CD-1 mice; [5]
  Mean Intensity of Convulsions/Mouse % of Total: Mild: 0.0 % of Total
  Mean Intensity of Convulsions/Mouse % of Total: Moderate: 33.3 % of Total
  Mean Intensity of Convulsions/Mouse % of Total: Severe: 66.7 % of Total
  Mean Number of Convulsions/Mouse: 0.2
  numbers of mice that had convulsions in the dose group: 2/13
CD-1 mice; 100 mg/kg i.p., range-finding study, N = 3/dose group
  numbers of mice that had convulsions in the dose group: 2/3
CD-1 mice; 100 mg/kg i.p., range-finding study, N = 3/dose group, hydrochloride
  Mean Number of Convulsions/Mouse: 1.0
CD-1 mice; 100 mg/kg i.p., second (main) study, N = 10/dose group, hydrochloride
  Mean Number of Convulsions/Mouse: 0
CD-1 mice; 150 mg/kg i.p., pooled data N = 13/dose group
  numbers of mice that had convulsions in the dose group: 13/13
CD-1 mice; [6]
  Mean Intensity of Convulsions/Mouse % of Total: Mild: 8.8 % of Total
  Mean Intensity of Convulsions/Mouse % of Total: Moderate: 12.2 % of Total
  Mean Intensity of Convulsions/Mouse % of Total: Severe: 79.0 % of Total
  Mean Number of Convulsions/Mouse: 71.0
CD-1 mice; 150 mg/kg i.p., range-finding study, N = 3/dose group
  numbers of mice that had convulsions in the dose group: 3/3
CD-1 mice; 150 mg/kg i.p., range-finding study, N = 3/dose group, hydrochloride
  Mean Number of Convulsions/Mouse: 32.0
CD-1 mice; 150 mg/kg i.p., second (main) study, N = 10/dose group
  numbers of mice that had convulsions in the dose group: 10/10
CD-1 mice; 150 mg/kg i.p., second (main) study, N = 10/dose group, hydrochloride
  Mean Number of Convulsions/Mouse: 82.7
CD-1 mice; […] i.p., pooled data N = 13/dose group, hydrochloride
  numbers of mice that had convulsions in the dose group: 13/13
CD-1 mice; […] i.p., range-finding study, N = 3/dose group
  numbers of mice that had convulsions in the dose group: 3/3
CD-1 mice; […] i.p., second (main) study, N = 10/dose group, hydrochloride
  numbers of mice that had convulsions in the dose group: 10/10
CD-1 mice; range finding study, i.p., hydrochloride
  threshold for tonic convulsions: 100 mg/kg

## Br.CC(NC(C)(C)C)C(=O)c1cccc(Cl)c1 (stereo not drawn) [bupropion hydrobromide]
mice; 100 mg/kg, All
  Mean Number of Convulsions/Mouse, cumulative: 0.77
[1]
  disproportionation of the salt at elevated temperatures (TGA, loss of API): did not occur
rat
  NUMBER OF ANIMALS WITH SEIZURE ACTIVITY: 4*
  DURATION OF INITIAL SEIZURE CORTEX mean ± s.e.m.: 31 ± 6
  DURATION OF INITIAL SEIZURE HIPPOCAMPUS mean ± s.e.m.: 23 ± 2
rat; in vivo, ip, 100 mg/kg
  dead: #dead (1/10).
[2]
  In water, 852U77: order of impurity content: fumarate > HBr > maleate > HCl
  In water, Total imp.: order of impurity content: fumarate > HBr > HCl > tosylate > maleate
[2]; closed vials
  order of stability (assay, % potency): HBr>HCl≈tosylate>fumarate>maleate
[2]; [7]
  In IPA/EtOH, 3-CBZ: order of impurity content: maleate > HBr > HCl > Fumarate
  In IPA/EtOH, 852U77: order of impurity content: fumarate > HBr ≈HCl ≈maleate ≈tosylate
  In IPA/EtOH, Total imp.: order of impurity content: fumarate > maleate > HBr > HCl > tosylate
[2]; spiked with water, closed vials, 32 days
  In water, 3-CBZ: order of impurity content: HCl > HBr≈maleate≈fumarate
CD-1 mice; […] dose level, pooled data
  reduction in the number of convulsant mice versus HCl salt: 15.4%
